Measured values published in patent US10040781B2, “Tank-binding kinase inhibitor compounds” (Gilead Sciences, Inc., priority 2014, dated 2018).
Counter-ions that a name gives are not always drawn.

How the values were obtained:
[1] = biological target: IKKε (Homo sapiens (Human), UniProt Q14164); assay: IKKε TR-FRET enzymatic assay; assay type: biochemical; conditions: read-out: IKKe IC50
[2] = biological target: hJAK2 (Homo sapiens (Human), UniProt O60674); assay: hJAK2 LANCE TR-FRET enzymatic assay; assay type: biochemical; conditions: read-out: JAK2 IC50
Chain of hJAK2 (O60674 whole entry): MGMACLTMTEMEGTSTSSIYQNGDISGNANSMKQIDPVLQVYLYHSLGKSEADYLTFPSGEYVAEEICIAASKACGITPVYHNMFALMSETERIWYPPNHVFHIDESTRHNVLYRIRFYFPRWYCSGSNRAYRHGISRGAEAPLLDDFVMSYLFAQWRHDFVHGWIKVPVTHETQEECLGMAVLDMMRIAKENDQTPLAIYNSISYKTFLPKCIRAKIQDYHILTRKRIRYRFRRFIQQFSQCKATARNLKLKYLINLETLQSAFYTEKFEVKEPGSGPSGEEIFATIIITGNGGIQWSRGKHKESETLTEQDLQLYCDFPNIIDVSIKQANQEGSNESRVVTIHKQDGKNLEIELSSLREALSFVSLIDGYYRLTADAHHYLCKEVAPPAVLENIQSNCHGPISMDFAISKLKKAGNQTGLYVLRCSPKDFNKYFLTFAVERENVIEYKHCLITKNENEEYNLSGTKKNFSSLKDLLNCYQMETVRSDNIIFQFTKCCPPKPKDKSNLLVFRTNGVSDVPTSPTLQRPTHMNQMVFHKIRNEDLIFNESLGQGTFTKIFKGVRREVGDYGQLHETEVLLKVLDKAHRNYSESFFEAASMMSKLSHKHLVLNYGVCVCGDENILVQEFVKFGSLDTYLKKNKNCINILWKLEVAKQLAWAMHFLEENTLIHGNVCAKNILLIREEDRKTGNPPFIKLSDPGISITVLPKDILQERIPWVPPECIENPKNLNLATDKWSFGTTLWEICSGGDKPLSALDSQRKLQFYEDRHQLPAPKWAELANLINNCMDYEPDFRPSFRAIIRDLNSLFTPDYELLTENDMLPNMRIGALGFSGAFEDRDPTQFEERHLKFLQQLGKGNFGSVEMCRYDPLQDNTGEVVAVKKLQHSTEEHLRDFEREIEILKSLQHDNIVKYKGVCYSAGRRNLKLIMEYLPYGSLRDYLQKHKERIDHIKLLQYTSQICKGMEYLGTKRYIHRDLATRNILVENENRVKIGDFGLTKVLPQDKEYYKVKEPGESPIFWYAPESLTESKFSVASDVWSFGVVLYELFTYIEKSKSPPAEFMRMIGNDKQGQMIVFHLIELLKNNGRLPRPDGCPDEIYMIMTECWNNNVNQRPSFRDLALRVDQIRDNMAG

[3] = biological target: TBK1 (Homo sapiens (Human), UniProt Q9UHD2); assay: TBK1 TR-FRET enzymatic assay;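 note: phosphorylation of a biotinylated Ser/Thr peptide by purified full-length recombinant TBK1, read by TR-FRET after 240 min at 25 °C, IC50 is the geometric mean of at least four runs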
Chain of TBK1 (Q9UHD2 whole entry): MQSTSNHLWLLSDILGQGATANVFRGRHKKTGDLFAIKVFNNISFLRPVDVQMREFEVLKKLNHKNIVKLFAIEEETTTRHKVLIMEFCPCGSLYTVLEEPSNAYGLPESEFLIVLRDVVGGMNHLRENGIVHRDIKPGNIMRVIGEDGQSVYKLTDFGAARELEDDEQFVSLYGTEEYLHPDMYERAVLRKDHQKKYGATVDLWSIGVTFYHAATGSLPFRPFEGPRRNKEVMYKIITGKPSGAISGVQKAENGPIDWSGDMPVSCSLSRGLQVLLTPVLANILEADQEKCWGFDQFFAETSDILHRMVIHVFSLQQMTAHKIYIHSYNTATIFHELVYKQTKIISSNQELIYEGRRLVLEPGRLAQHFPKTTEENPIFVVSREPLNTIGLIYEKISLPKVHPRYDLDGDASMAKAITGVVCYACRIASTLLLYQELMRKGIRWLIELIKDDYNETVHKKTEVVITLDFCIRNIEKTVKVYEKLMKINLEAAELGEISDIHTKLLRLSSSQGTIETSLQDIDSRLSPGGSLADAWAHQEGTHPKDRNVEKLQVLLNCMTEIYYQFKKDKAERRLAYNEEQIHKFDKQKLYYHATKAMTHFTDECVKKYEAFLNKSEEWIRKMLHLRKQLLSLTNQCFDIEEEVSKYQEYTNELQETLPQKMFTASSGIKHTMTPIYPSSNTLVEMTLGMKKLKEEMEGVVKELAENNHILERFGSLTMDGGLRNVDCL

Chain of IKKε (Q14164 whole entry): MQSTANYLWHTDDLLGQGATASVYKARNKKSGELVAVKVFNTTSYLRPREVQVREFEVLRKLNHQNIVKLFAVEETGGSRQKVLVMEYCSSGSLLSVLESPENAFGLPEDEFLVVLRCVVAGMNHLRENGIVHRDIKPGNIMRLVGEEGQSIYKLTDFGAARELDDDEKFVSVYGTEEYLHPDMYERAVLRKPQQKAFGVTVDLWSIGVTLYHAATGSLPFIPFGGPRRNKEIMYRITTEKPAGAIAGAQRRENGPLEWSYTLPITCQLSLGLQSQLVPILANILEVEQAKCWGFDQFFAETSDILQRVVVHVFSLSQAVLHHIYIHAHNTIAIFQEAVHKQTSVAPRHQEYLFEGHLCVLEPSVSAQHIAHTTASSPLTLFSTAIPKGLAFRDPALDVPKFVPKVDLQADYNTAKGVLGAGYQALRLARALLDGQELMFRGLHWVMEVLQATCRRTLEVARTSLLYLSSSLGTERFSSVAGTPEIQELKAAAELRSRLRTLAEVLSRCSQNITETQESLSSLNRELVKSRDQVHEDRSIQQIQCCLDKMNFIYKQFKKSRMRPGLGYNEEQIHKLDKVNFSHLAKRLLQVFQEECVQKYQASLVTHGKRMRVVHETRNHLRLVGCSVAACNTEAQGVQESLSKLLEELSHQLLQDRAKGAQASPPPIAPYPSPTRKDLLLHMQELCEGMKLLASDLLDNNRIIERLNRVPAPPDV

SMILES	IC50 [1] [nM]	IC50 [2] [nM]	IC50 [3] [nM]
CC(=O)N1CC[C@@H](Oc2ccc(-c3ncnc(Nc4ccc(N5CCN(C6COC6)CC5)cc4)n3)cc2C#N)C1 [Example 3, (R)-2-((1-acetylpyrrolidin-3-yl)oxy)-5-(4-((4-(4-(oxetan-3-yl)piperazin-1-yl)phenyl)amino)-1,3,5-triazin-2-yl)benzonitrile]	99	724	20
CC1(COc2ccc(-c3ncnc(Nc4ccc(N5CCN(C6COC6)CC5)cc4)n3)cc2C#N)COC1 [Example 6, 2-((3-methyloxetan-3-yl)methoxy)-5-(4-((4-(4-(oxetan-3-yl)piperazin-1-yl)phenyl)amino)-1,3,5-triazin-2-yl)benzonitrile]	20	178	7
Cn1cc(Nc2ncnc(-c3ccc(N4CCCC4)c(C#N)c3)n2)cn1 [Example 8, 5-(4-((1-methyl-1H-pyrazol-4-yl)amino)-1,3,5-triazin-2-yl)-2-(pyrrolidin-1-yl)benzonitrile]	19	278	7
Cn1cc(Nc2ncnc(-c3ccc(OC4CCOCC4)c(C#N)c3)n2)cn1 [Example 9, 5-(4-((1-methyl-1H-pyrazol-4-yl)amino)-1,3,5-triazin-2-yl)-2-((tetrahydro-2H-pyran-4-yl)oxy)benzonitrile]	7	363	3
CC(=O)N1CCN(c2ccc(Nc3ncnc(-c4ccc(OC5CCOCC5)c(C#N)c4)n3)cc2)CC1 [Example 11, 5-(4-((4-(4-acetylpiperazin-1-yl)phenyl)amino)-1,3,5-triazin-2-yl)-2-((tetrahydro-2H-pyran-4-yl)oxy)benzonitrile]	4	224	1
COc1cc(Nc2ncnc(-c3ccc(OC4CCOCC4)c(C#N)c3)n2)ccc1N1CCN(C2COC2)CC1 [Example 13, 5-(4-((3-methoxy-4-(4-(oxetan-3-yl)piperazin-1-yl)phenyl)amino)-1,3,5-triazin-2-yl)-2-((tetrahydro-2H-pyran-4-yl)oxy)benzonitrile]	2	127	1
C[C@H](O)C(=O)N1CCC(Oc2ccc(-c3ncnc(Nc4ccc(N5CCN(C6COC6)CC5)cc4)n3)cc2C#N)CC1 [Example 15, (S)-2-((1-(2-hydroxypropanoyl)piperidin-4-yl)oxy)-5-(4-((4-(4-(oxetan-3-yl)piperazin-1-yl)phenyl)amino)-1,3,5-triazin-2-yl)benzonitrile]	14	> 1000	5
N#Cc1cc(-c2ncnc(Nc3ccc(N4CCN(C5COC5)CC4)cc3)n2)ccc1OC1CCS(=O)(=O)CC1 [Example 17, 2-((1,1-dioxidotetrahydro-2H-thiopyran-4-yl)oxy)-5-(4-((4-(4-(oxetan-3-yl)piperazin-1-yl)phenyl)amino)-1,3,5-triazin-2-yl)benzonitrile]	54	540	9
N#Cc1cc(-c2ncnc(Nc3ccc(N4CCNCC4)cc3)n2)ccc1OC1CCOCC1 [Example 18, 5-(4-((4-(piperazin-1-yl)phenyl)amino)-1,3,5-triazin-2-yl)-2-((tetrahydro-2H-pyran-4-yl)oxy)benzonitrile, trifluoroacetic acid salt]	1	271	1
N#Cc1cc(-c2ncnc(Nc3ccc(N4CCN(C5COC5)CC4)cc3)n2)ccc1OC1CCSCC1 [Example 19, 5-(4-((4-(4-(oxetan-3-yl)piperazin-1-yl)phenyl)amino)-1,3,5-triazin-2-yl)-2-((tetrahydro-2H-thiopyran-4-yl)oxy)benzonitrile]	4	> 1000	1
COc1cc(Nc2ncnc(-c3ccc(OC4CCOCC4)c(C#N)c3)n2)ccc1C1CCN(C2COC2)CC1 [Example 20, 5-(4-((3-methoxy-4-(1-(oxetan-3-yl)piperidin-4-yl)phenyl)amino)-1,3,5-triazin-2-yl)-2-((tetrahydro-2H-pyran-4-yl)oxy)benzonitrile]	2	> 1000	2
COc1cc(Nc2ncnc(-c3ccc(OC4CCOCC4)c(C#N)c3)n2)ccc1C(N)=O [Example 21, 4-((4-(3-cyano-4-((tetrahydro-2H-pyran-4-yl)oxy)phenyl)-1,3,5-triazin-2-yl)amino)-2-methoxybenzamide]	6	> 1000	4
COc1cc(Nc2ncnc(-c3ccc(O[C@@H]4CCN(C(=O)CO)C4)c(C#N)c3)n2)ccc1N1CCN(C2COC2)CC1 [Example 22, (R)-2-((1-(2-hydroxyacetyl)pyrrolidin-3-yl)oxy)-5-(4-((3-methoxy-4-(4-(oxetan-3-yl)piperazin-1-yl)phenyl)amino)-1,3,5-triazin-2-yl)benzonitrile]	8	128	3
N#Cc1cc(-c2ncnc(Nc3ccc(N4CCN(C5COC5)CC4)c(F)c3)n2)ccc1OC1CCOCC1 [Example 27, 5-(4-((3-fluoro-4-(4-(oxetan-3-yl)piperazin-1-yl)phenyl)amino)-1,3,5-triazin-2-yl)-2-((tetrahydro-2H-pyran-4-yl)oxy)benzonitrile]	7	988	2

Continued by falling IC50 [1], values first:

IC50 [1] [nM]	IC50 [2] [nM]	IC50 [3] [nM]	SMILES
101	269	35	N#Cc1cc(-c2ncnc(Nc3ccc(N4CCN(C5COC5)CC4)cc3)n2)ccc1OC1COC1 [Example 5, 5-(4-((4-(4-(oxetan-3-yl)piperazin-1-yl)phenyl)amino)-1,3,5-triazin-2-yl)-2-(oxetan-3-yloxy)benzonitrile]
15	336	5	N#Cc1cc(-c2ncnc(Nc3ccc(N4CCN(C5COC5)CC4)cc3)n2)ccc1N1CCCC1 [Example 10, 5-(4-((4-(4-(oxetan-3-yl)piperazin-1-yl)phenyl)amino)-1,3,5-triazin-2-yl)-2-(pyrrolidin-1-yl)benzonitrile]
10	> 1000	6	C[C@H](O)C(=O)N1CCC(Oc2ccc(-c3ncnc(Nc4ccc(C5CCN(C6COC6)CC5)cc4)n3)cc2C#N)CC1 [Example 23, (S)-2-((1-(2-hydroxypropanoyl)piperidin-4-yl)oxy)-5-(4-((4-(1-(oxetan-3-yl)piperidin-4-yl)phenyl)amino)-1,3,5-triazin-2-yl)benzonitrile]
4	603	1	N#Cc1cc(-c2ncnc(Nc3ccc(N4CCN(C5COC5)CC4)cc3)n2)ccc1OC1CCN(C(=O)CO)CC1 [Example 16, 2-((1-(2-hydroxyacetyl)piperidin-4-yl)oxy)-5-(4-((4-(4-(oxetan-3-yl)piperazin-1-yl)phenyl)amino)-1,3,5-triazin-2-yl)benzonitrile]
3	225	1	COc1cc(Nc2ncnc(-c3ccc(OC4CCOCC4)c(C#N)c3)n2)ccc1N1CCN(CC(F)F)CC1 [Example 7, 5-(4-((4-(4-(2,2-difluoroethyl)piperazin-1-yl)-3-methoxyphenyl)amino)-1,3,5-triazin-2-yl)-2-((tetrahydro-2H-pyran-4-yl)oxy)benzonitrile]
2	602	1	COc1cc(Nc2ncnc(-c3ccc(OC4CCOCC4)c(C#N)c3)n2)cc(OC)c1OC [Example 24, 2-((tetrahydro-2H-pyran-4-yl)oxy)-5-(4-((3,4,5-trimethoxyphenyl)amino)-1,3,5-triazin-2-yl)benzonitrile]
